Molecular target: T1, KRAS G12C 1-169, his-tagged protein, GDP-loaded (Homo sapiens, UniProt P01116, G12C)
T1 construct: KRAS G12C 1-169, his-tagged protein, GDP-loaded; His tag
Experiment: Biochemical assay: covalent modification of KRAS G12C measured by mass spectrometry
Format: binding
Conditions: after a 10 minute incubation period
Procedure: Test compounds are prepared as 10 mM stock solutions in DMSO (Fisher cat #BP-231-100). KRAS G12C 1-169, his-tagged protein, GDP-loaded is diluted to 2 μM or 0.5 μM in buffer (20 mM Hepes, 150 mM NaCl, 1 mM MgCl2). Compounds are tested for activity as follows:
Compounds are diluted to 50× final test concentration in DMSO in 96-well storage plates. Compound stock solutions are vortexed before use and observed carefully for any sign of precipitation. […] The plate is then resealed with aluminum seal and stored on dry ice until analyzed as described below.
The above described assays are analyzed by mass spectrometry according to one of the following two procedures: […]
After another 30 minute equilibration time, a blank batch (i.e., buffer) is run to ensure equipment is operating properly. […] The method is then run and masses of each individual well recorded. […]
The masses and peak intensities of KRAS G12C protein species are measured using a Dionex RSLCnano system (Thermo Scientific) connected to a Q Exactive Plus mass spectrometer (Thermo Scientific). […]
The mass spectrometer is operated in profile mode at a resolution of 17500, 5 microscans, using 50 msec max injection time and an AGC target of 1×10^6, and a full mass range from 800-1850 m/z is recorded. […]

T1 sequence (P01116 1-169 isoform P01116-2 G12C): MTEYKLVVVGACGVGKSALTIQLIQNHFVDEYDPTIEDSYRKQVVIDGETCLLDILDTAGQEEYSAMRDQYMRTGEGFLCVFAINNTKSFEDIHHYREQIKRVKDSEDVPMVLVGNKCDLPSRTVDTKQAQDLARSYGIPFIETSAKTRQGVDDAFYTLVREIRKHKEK

- binding to KRAS G12C (modification percentage): greater than 75%
Structure (SMILES): C=CC(=O)N1C[C@H](C)N(c2nc(C3CN(C(C)C)C3)nc3c(F)c(-c4c(O)cccc4F)c(Cl)cc23)C[C@H]1C (atropisomer, axis not shown) [Compound 1, 1-((2R,5S)-4-((S)-6-chloro-8-fluoro-7-(2-fluoro-6-hydroxyphenyl)-2-(1-isopropylazetidin-3-yl)quinazolin-4-yl)-2,5-dimethylpiperazin-1-yl)prop-2-en-1-one]
